Assay results: US20130337564A1, “Treatment of Pluripotent Cells” (Janssen Biotech, Inc., priority 2012, published 2013)
“And” between values parts separate entries of the source, which are not always exact repeats. Equal values may be shown once.

Tests used:
Format in all cases: cell-based
[1] = tested on: Sox17 expression in human embryonic stem cells (H9 line); experiment: High content screening assay: Sox17 protein expression (differentiation); conditions: for SOX17 Expression, Fold over Wnt 3a/AA control: 10 μM test compound with 100 ng/ml activin A on days 1-2, H9, total intensity by IN Cell Analyzer, strong and moderate hits; for SOX-17 Expression Fold over Wnt 3a/AA control: total intensity normalised to Wnt 3a/AA control
Description: (§1) Maintenance of human embryonic stem cells (H9 line) was conducted as described in Example 1. Colonies of cells were maintained in an undifferentiated, pluripotent state with passage on average every four days. Passage was performed by exposing cell cultures to a solution of collagenase (1 mg/ml; Sigma-Aldrich) for 10 to 30 minutes at 37° C. followed by gentle scraping with a pipette tip to recover cell clusters. Clusters were allowed to sediment by gravity, followed by washing to remove residual collagenase. Cell clusters were split at a 1:3 ratio for routine maintenance culture or a 1:1 ratio for immediate assay. The human embryonic stem cell lines used were maintained at passage numbers less than passage 50 and routinely evaluated for normal karyotypic phenotype and absence of mycoplasma contamination.
(§2) Cell clusters used in the assay were evenly resuspended in normal culture medium and plated onto MATRIGEL-coated 96-well Packard VIEWPLATES (PerkinElmer) in volumes of […]. MEF conditioned medium supplemented with 8 ng/ml bFGF was used for initial plating and recovery. Daily feeding was conducted by aspirating spent culture medium from each well and replacing with an equal volume of fresh medium. Plates were maintained at 37° C., 5% CO2 in a humidified box throughout the duration of assay.
(§3) Screening was conducted using test compounds from a proprietary library of small molecules selected for their ability to inhibit GSK-3B enzyme activity. Compounds from this library were made available as 1 mM stocks, in a 96-well plate format in 50 mM HEPES, 30% DMSO. Screening compounds were tested in triplicate or duplicate sets. Primary screening assays were initiated by aspirating culture medium from each well followed by three washes in PBS to remove residual growth factors and serum. Test volumes of 80 to 100 μl per well were added back containing DMEM:F12 base medium (Invitrogen) supplemented with 0.5% FCS (HyClone) and 100 ng/ml activin A (R&D Biosystems) plus 10 μM test compound. Positive control wells contained the same base medium, substituting 10-20 ng/ml Wnt3a (R&D Biosystems) for the test compound. Negative control wells contained base medium with 0.5% FCS and activin A alone (AA only) or alternatively, 0.5% FCS without activin A or Wnt3a (no treatment). Wells were aspirated and fed again with identical solutions on day 2 of assay. On days 3 and 4, all assay wells were aspirated and converted to DMEM:F12 supplemented with 2% FCS and 100 ng/ml activin A (without test compound or Wnt3a); parallel negative control wells were maintained in DMEM:F12 base medium with 2% FCS and activin A (AA only) or alternatively, 2% FCS without activin A (no treatment).
(§4) At the end of culture, cells in 96-well plates were fixed with 4% paraformaldehyde at room temperature for 20 minutes, washed three times with PBS, and then permeabilized with 0.5% Triton X-100 for 20 minutes at room temperature. Alternatively, cells were fixed with ice cold 70% ethanol overnight at −20° C., washed three times with PBS, and then permeabilized with Triton X-100 for 5 minutes at 4° C. After fixing and permeabilizing, cells were washed again three times with PBS and then blocked with 4% chicken serum (Invitrogen) in PBS for 30 minutes at room temperature. Primary antibodies (goat anti-human Sox17 and goat anti-human HNF-3beta; R&D Systems) were diluted 1:100 in 4% chicken serum and added to cells for one hour at room temperature. Alexa Fluor 488 conjugated secondary antibody (chicken anti-goat IgG; Molecular Probes) was diluted 1:200 in PBS and added after washing the cells three times with PBS. To counterstain nuclei, 5 mM Draq5 (Alexis Biochemicals) was added for five minutes at room temperature. Cells were washed once with PBS and left in […] PBS for imaging.
(§5) Cells were imaged using an IN Cell Analyzer 1000 (GE Healthcare) utilizing the 51008bs dichroic for cells stained with Draq5 and Alexa Fluor 488. […]

[2] = tested on: human embryonic stem cells (H9 line); experiment: High content screening assay: cell number (proliferative response)
Description: as §1, §2, §3, §4, §5

[3] = tested on: cells expressing pluripotency markers derived from human embryonic stem cells; experiment: MTS viability (toxicity) assay of cells expressing pluripotency markers; design: Raw data (duplicate), first replicate / Average: unit not given here; conditions: for Raw data (duplicate), first replicate / Raw data (duplicate), second replicate: MTS viability assay raw reading; for Raw data (duplicate), first replicate: replicate 1; for Raw data (duplicate), second replicate: replicate 2; for Average: average of duplicate MTS raw readings; for % Control / viability at 10 µM: viability of cells expressing pluripotency markers, relative to control; for viability at 10 µM: Homo sapiens, Embryonic stem cell
Description: Derivation and maintenance of cells expressing pluripotency makers was conducted as has been described in Example 2. Cells were grown in DMEM:F12 supplemented with 2% FCS (Invitrogen), 100 ng/ml Activin A, 20 ng/ml Wnt-3a, and 50 ng/ml IGF (R&D Biosystems). Cells were seeded at a density of 10,000 cells/cm^2 on Falcon polystyrene flasks and grown in monolayer culture at 37° C., 5% CO2, low oxygen. After reaching 60-70% confluence, cells were passed by washing the monolayer with PBS and incubating with TrypLE (Invitrogen) for 3-5 minutes to allow detachment and single cell dispersal.
Screening was conducted using test compounds from a proprietary library of small molecules selected for their ability to inhibit GSK-3B enzyme activity. Compounds from this library were made available as 1 mM stocks, in a 96-well plate format in 50 mM HEPES, 30% DMSO. For assay, cells expressing pluripotency markers were washed, counted, and plated in normal culture medium at a seeding density of 20,000 cells per well in 96-well clear-bottom, dark-well plates (Costar). This seeding density was previously determined to yield optimal monolayer formation in overnight culture. On the following day, culture medium was removed, cell monolayers were rinsed three times with PBS, and test compounds were added to the wells in 80 μl aliquots, each diluted into assay medium at a final assay concentration of 10 μM. On day 2 of the assay, medium was removed from each well and replaced with a fresh aliquot of test compounds diluted into assay medium. Assay medium on days 1 and 2 of culture consisted of DMEM:F12 supplemented with 0.5% FCS and 100 ng/ml Activin A. On days 3 and 4 of culture, medium was removed from each well and replaced with DMEM:F12 supplemented with 2% FCS and 100 ng/ml Activin A (no test compound). On day 4 of assay, 15 μl of MTS (Promega) was added to each well and plates were incubated at 37° C. for 1.5 to 4 hours prior to reading optical density at 490 nm on a SpectraMax (Molecular Devices) instrument. Statistical measures consisting of mean, standard deviation, and coefficient of variation were calculated for each duplicate set. Toxicity was calculated for each test well relative to a positive control (wells treated with Activin A and Wnt3a on days 1 and 2 of culture).
A larger proportion of the compounds have minimal or no measurable toxicity in this cell-based assay.
A small panel of select compounds was repeat tested over a narrow dose titration range, again using cells expressing pluripotency markers in a similar assay as described above.

[4] = tested on: HNF-3beta expression in human embryonic stem cells (H9 line); experiment: High content screening assay: HNF-3beta protein expression (differentiation); conditions: for HNF-3b Expression Fold over Wnt 3a/AA control: total intensity normalised to Wnt 3a/AA control
Description: as §1, §2, §3, §4, §5

[5] = 10 μM test compound with 100 ng/ml activin A on days 1-2, H9, total cell number by IN Cell Analyzer, strong and moderate hits
[6] = cell number in the wells analysed for HNF-3b expression
[7] = cell number in the wells analysed for HNF-3b expression, normalised to Wnt 3a/AA control
[8] = cell number in the wells analysed for SOX-17 expression
[9] = cell number in the wells analysed for SOX-17 expression, normalised to Wnt 3a/AA control
[10] = 10 μM test compound with 100 ng/ml activin A on days 1-2, H9, total intensity by IN Cell Analyzer, strong and moderate hits

SMILES	SOX17 Expression, Fold over Wnt 3a/AA control [1]	SOX-17 Expression Total Intensity [1]	SOX-17 Expression Fold over Wnt 3a/AA control [1] [fold]	Proliferative Response Fold over Wnt 3a/AA control [2, 5]	Proliferative Response Total cells [2, 6]	Proliferative Response Fold over Wnt 3a/AA control [2, 7] [fold]	Proliferative Response Total cells [2, 8]	Proliferative Response Fold over Wnt 3a/AA control [2, 9] [fold]	Raw data (duplicate), first replicate [3]	Raw data (duplicate), second replicate [3]	Average [3]	% Control [3] [%]	HNF3β Expression, Fold over Wnt 3a/AA control [4, 10]	HNF-3b Expression Total Intensity [4]	HNF-3b Expression Fold over Wnt 3a/AA control [4] [fold]	fold induction at 10 µM ([2]; Homo sapiens, Embryonic stem cell, 10 μM test compound with 100 ng/ml activin A on days 1-2, H9, total cell number by IN Cell Analyzer, strong and moderate hits, read-out: Proliferative Response, Fold over Wnt 3a/AA control)	viability at 10 µM [3] [%]	fold induction at 10 µM ([4]; Homo sapiens, Embryonic stem cell, 10 μM test compound with 100 ng/ml activin A on days 1-2, H9, total intensity by IN Cell Analyzer, strong and moderate hits, read-out: HNF3β Expression, Fold over Wnt 3a/AA control)
O=C1CCCCn2cc(c3cccnc32)C2=C(C(=O)NC2=O)c2cn(c3ncccc23)CCCC1 [Compound 11, 8,9,11,12,13,14-Hexahydro-6H,21H-5,24:15,20-di(metheno)dipyrido[2,3-b:3′,2′-h]pyrrolo[3,4-e][1,10]diazacyclononadecine-10,21,23(7H,22H)-trione]	0.5686 Fold over Wnt 3a/AA control	213165000	0.5686	0.6025 Fold over Wnt 3a/AA control	3043	0.6025	2892.5	0.363	0.743	0.638	0.691	84.1	0.5866 Fold over Wnt 3a/AA control	269570000	0.5866	–	–	–
O=C1NC(=O)C(c2cn(-c3cccnc3)c3ccccc23)=C1c1n[nH]c2ccccc12 [Compound 14]	1.0080 Fold over Wnt 3a/AA control	–	–	–	–	–	–	–	–	–	–	–	–	–	–	1.05	95.1	0.869
O=C1NC(=O)C2=C1c1cn(c3ncccc13)CCOCCOCCOCCn1cc2c2cccnc21 [Compound 2, 6,7,9,10,12,13,15,16-Octahydro-23H-5,26:17,22-di(metheno)dipyrido[2,3-k:3′,2′-q]pyrrolo[3,4-n][1,4,7,10,19]trioxadiazacyclohenicosine-23,25(24H)-dione]	0.7921 Fold over Wnt 3a/AA control	296920000	0.7921	1.3757 Fold over Wnt 3a/AA control and 1.1246 Fold over Wnt 3a/AA control	5679	1.125	10963	1.376	0.785	0.790	0.788	94.0	1.0087 Fold over Wnt 3a/AA control	463525000	1.0087	–	–	–
CN(C)CCCn1cc(C2=C(c3ccccc3Cl)C(=O)NC2=O)c2cccnc21 [Compound 12, 3-(2-Chlorophenyl)-4-{1-[3-(dimethylamino)propyl]-1H-pyrrolo[2,3-b]pyridin-3-yl}-1H-pyrrole-2,5-dione]	–	203350000	–	–	2410	–	2460.5	–	0.148	0.152	0.150	–	–	209795000	–	–	4.8	–
CCN1CCOCCn2cc(c3ccccc32)C2=C(C(=O)NC2=O)c2cn(c3ccccc23)CCOCC1 [Compound 15, 11-Ethyl-6,7,10,11,12,13,15,16-octahydro-9H,23H-5,26:17,22-di(metheno)dibenzo[k,q]pyrrolo[3,4-n][1,7,4,10,19]dioxatriazacyclohenicosine-23,25(24H)-dione]	1.2678 Fold over Wnt 3a/AA control	475250000	1.2678	1.3217 Fold over Wnt 3a/AA control and 1.0269 Fold over Wnt 3a/AA control	5186	1.027	10533	1.322	0.162	0.134	0.148	4.5	0.8807 Fold over Wnt 3a/AA control	404710000	0.8807	–	–	–
